The values that follow come from patent US5972873A, “4-substituted-phenyl-boronic acids as enzyme stabilizers” (Novo Nordisk A/S, priority 1995, dated 1999).

In assay [1] the target is T1, Savinase (Lederbergia lenta, UniProt P29600).
T1 sequence (P29600 1-269): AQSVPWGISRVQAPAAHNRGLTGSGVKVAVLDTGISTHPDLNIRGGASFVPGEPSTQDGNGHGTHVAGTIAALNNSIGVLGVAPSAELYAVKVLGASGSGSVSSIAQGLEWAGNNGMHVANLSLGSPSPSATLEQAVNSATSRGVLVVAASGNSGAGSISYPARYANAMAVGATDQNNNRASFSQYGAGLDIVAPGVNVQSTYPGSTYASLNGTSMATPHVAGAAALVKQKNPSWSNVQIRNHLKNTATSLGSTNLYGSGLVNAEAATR
The assay is described as follows: Determination of Ki: inhibition of Savinase (SAAPFpNA substrate). Format: biochemical. The arrangement: purchased Novo Nordisk A/S. Conditions: 0.1M Tris-HCl pH 8.6, 25° C. From the text: b) Determination of Ki : The inhibition constant Ki may be determined by using standard methods, for reference see Keller et al, Biochem. Biophys. Res. Com. 176, 1991, pp.401-405; J. Bieth in Bayer-Symposium "Proteinase Inhibitors", pp. 463-469, Springer-Verlag, 1974 and Lone Kierstein Hansen in "Determination of Specific Activities of Selected Detergent Proteases using Protease Activity, Molecular Weights, Kinetic Parameters and Inhibition Kinetics", PhD-report, Novo Nordisk A/S and University of Copenhagen, 1991.
The inhibition constant Ki for the inhibition of Savinase™ (available from Novo Nordisk A/S) was determined using standard methods under the following conditions: […]
The initial rate of substrate hydrolysis was determined at nine substrate concentrations in the range of 0.01 to 2 mM using a Cobas Fara automated spectrophotometer. The kinetic parameters Vmax and Km were determined using ENZFITTER (a non-linear regression data analysis program).
kcat was calculated from the equation Vmax =kcat X [Eo ]. The concentration of active enzyme [Eo ] was determined by active site titration using tight-binding protein proteinase inhibitors. The inhibition constant Ki was calculated from plots of Km /kcat as a function of the concentration of inhibitor. The inhibitors were assumed to be 100% pure and the molar concentrations were determined using weighing numbers and molecular weights.

The target of assay [2] is T1, Savinase. The assay is described as follows: Storage Stability Test in Liquid Detergent (Detergent base, US-type), Example 3. The assay is classed as biochemical. The arrangement: purchased Novo Nordisk A/S. The following applies: for Improvement Factor (IFI): relative to Boric Acid, US-type detergent, 1% w/w Savinase (14 KNPU/g), stabilizer 5 mmole/kg (boric acid 160 mmole/kg), 0, 3, 7 and 14 days at 30° C. The protocol:
(§1) a) Storage Stability Test in Liquid Detergent: Enzyme(s) and stabilizer are added to a liquid detergent formulation and stored at well defined conditions. The enzyme activity of each enzyme is determined as a function of time, e.g. after 0, 3, 7 and 14 days.
(§2) To calculate the inhibition efficiency from the storage stability date a reaction mechanism is proposed.
(§3) From these reactions three coupled differential equations are derived describing the deactivation of P, L and PI. The reaction rate constants are derived from storage stability data by the use of a parameter estimation method (Gauss-Newton with the Levenberg modification). The storage stability data give the concentration of (P+PI) and L as a function of time.
(§4) Reaction IV is excluded from the system to reduce the number of parameters thereby describing the stability of the inhibited enzyme by only one reaction rate constant (from equation V).
(§5) In all experiments there is a large surplus of inhibitor molecules compared to protease molecules, i.e. a constant concentration of inhibitor (corresponding to the added amount of inhibitor) is a reasonable assumption.
(§6) An improvement factor is thus derived: [formula] IFI measures the inhibition efficiency given by the inhibition constants KI from reaction III.
Phenyl boronic acid derivatives were also tested in storage stability tests in liquid detergents using the method described previously under the following conditions: […]

Assay [3] has as its target T1, Savinase. Briefly: Storage Stability Test in a Commercial Detergent (Omo Micro), Example 4. Format: biochemical. More on the design: purchased Novo Nordisk A/S. Conditions: 1.33 mM stabilizer (boric acid 160 mM), 1% w/w Savinase (8 KNPU/g), 1% w/w Lipolase (100 KLU/g), 0, 7, 15, and 21 days at 40° C. The protocol:
An improvement factor is thus derived: [formula]
The inhibition effectiveness IFI of 4-formyl-phenyl-boronic acid was also found in a commercial detergent Omo Micro.
Omo Micro was bought in a Danish supermarket. The enzymes were inactivated at 90° C. (overnight).
The following dosages in the detergent were used:
4-Formyl-phenyl-boronic acid: 1.33 mM, or
Protease: 1% w/w Savinase (8 KNPU/g), and
Lipase: 1% w/w Lipolase (100 KLU/g).
Storage: 0, 7, 15, and 21 days at 40° C.

Assay [4] concerns proteolytic enzymes. Conditions: background statement; WO 92/19707 for aryl boronic acids; cited from earlier work.
In assay [5] the target is T1, Savinase. The following applies: US-type detergent; 1% w/w Savinase (14 KNPU/g); 5 mmole/kg (boric acid 160 mmole/kg); 0, 2, 7 and 14 days at 30° C. On the procedure: as §1, §2, §3, §4, §5, §6
Assay [6] has as its system subtilisin. Conditions: Keller et al, 1991; cited from earlier work.

As a reminder, the Ki is a measure of affinity in units of concentration, obtained from inhibition or displacement. Read a low Ki as tighter binding.

In assay [1], `O=Cc1ccc(B(O)O)cc1` [4-formyl-phenyl-boronic acid, 4-Formyl-phenyl-boronic acid] gave a Ki of 300 µM. In addition, in assay [2] (calculated on molar basis), the “storage stability properties versus 2-formyl-phenyl-boronic acid” value is “at least 25 times better”, the “storage stability properties versus 3-formyl-phenyl-boronic acid” value was “at least four times better” and the “storage stability properties versus acetamidophenyl boronic acid” value was “at least three times better”. In assay [2], the “Improvement Factor (IFI)” value came out at 1000. The “inhibition effectiveness IFI” value in assay [3] was found to be 2500.

Turning to `OB(O)O` [Boric acid], the “inhibition of proteolytic enzymes” value in assay [4] is given as “reversibly inhibit proteolytic enzymes”. In turn, `O=C(O)c1ccc(B(O)O)cc1` [4-Carboxybenzeneboronic acid] returned an IFI in assay [5] of 22.

With `O=Cc1ccccc1B(O)O` [2-formyl-phenyl-boronic acid], the “Improvement Factor (IFI)” value in assay [2] was 36.

In assay [1], `CC(=O)Nc1cccc(B(O)O)c1` [acetamidophenyl boronic acid] showed a Ki of 1000 µM. Moreover, the “Improvement Factor (IFI)” value in assay [2] is listed as 300.

Regarding `CB(O)O` [methylboronic acid], the “capacity as subtilisin inhibitor” value in assay [6] is “poorest inhibitor”. For the molecule `OB(O)c1cc(Cl)cc(Cl)c1` [3,5-dichlorophenylboronic acid], the “capacity as subtilisin inhibitor” value in assay [6] is given as “particularly effective”. On to `O=Cc1cccc(B(O)O)c1` [3-formyl-phenyl-boronic acid], for which the “Improvement Factor (IFI)” value in assay [2] is 230.
